ChEMBL document CHEMBL1201862, “PubChem BioAssay data set” (2004)
Calls of active or inactive are those of the source.

Experiments:
[1] = M. tuberculosis growth inhibition, HTS (AID 449762); type: functional
[2] = target: T1, Bcl-2-related protein A1 (Mus musculus, UniProt Q07440); assay: Bfl-1 inhibitors blocking BH3 peptide binding, confirmation, biochemical, TR-FRET, mouse Bfl-1 (AID 621);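 also: TR-FRET binding of GST-Bfl-1 to FITC-labelled Bid peptide via terbium antibody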
T1 sequence (Q07440 whole entry): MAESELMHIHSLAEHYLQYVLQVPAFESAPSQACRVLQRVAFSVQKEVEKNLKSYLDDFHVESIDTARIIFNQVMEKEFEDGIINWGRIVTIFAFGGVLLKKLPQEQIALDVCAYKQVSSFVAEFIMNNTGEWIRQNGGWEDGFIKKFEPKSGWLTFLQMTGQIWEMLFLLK

[3] = target: T1, Bcl-2-related protein A1; assay: Bfl-1 binding inhibitors, SAR follow-up, biochemical, fluorescence polarization (AID 1070)
[4] = system: Vero; assay: host cell cytotoxicity of antiviral hits, dose response, cytotoxicity control for West Nile virus antiviral project, secondary assay (AID 1650); type: functional; settings: Chlorocebus sabaeus
[5] = target: Photoreceptor-specific nuclear receptor (Homo sapiens, UniProt Q9Y5X4); assay: NR2E3 inverse agonists, dose response, biochemical, TR-FRET (AID 463256); type: functional
[6] = target: T2, RNA-binding protein pos-1 (Caenorhabditis elegans, UniProt G5EF15); assay: inhibitors of POS-1/mex-3 RNA binding, dose response, biochemical, fluorescence polarization (AID 1964);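 also: purified POS-1 fused to maltose binding protein made in E. coli; potency of compounds blocking POS-1 binding to fluorescent RNA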
T2 sequence (G5EF15 whole entry): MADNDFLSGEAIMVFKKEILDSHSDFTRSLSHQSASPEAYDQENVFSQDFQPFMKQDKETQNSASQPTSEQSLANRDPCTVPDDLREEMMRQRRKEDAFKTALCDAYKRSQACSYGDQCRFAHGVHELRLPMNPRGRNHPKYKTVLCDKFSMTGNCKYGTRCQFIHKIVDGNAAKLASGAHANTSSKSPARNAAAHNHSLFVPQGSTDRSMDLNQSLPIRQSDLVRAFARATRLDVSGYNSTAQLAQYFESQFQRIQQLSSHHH

[7] = target: Dual specificity tyrosine-phosphorylation-regulated kinase 1A (Rattus norvegicus, UniProt Q63470); type: biochemical, Homo sapiens
[8] = target: Peroxisome proliferator-activated receptor gamma/Nuclear receptor corepressor 2 (Homo sapiens, UniProt P37231+Q9Y618); assay: Counterscreen for NR2E3 inverse agonists: TR-FRET-based biochemical high throughput dose response assay to identify inverse agonists of the interaction between peroxisome proliferator-activated receptor gamma (PPARg) and nuclear receptor co-repressor 2 (NCOR2).; type: functional
[9] = target: T3, Zinc finger protein mex-5 (Caenorhabditis elegans, UniProt Q9XUB2); assay: MEX-5/TCR-2 RNA interaction inhibitors, dose response, biochemical, C. elegans, fluorescence polarization (AID 1960)
T3 sequence (Q9XUB2 whole entry): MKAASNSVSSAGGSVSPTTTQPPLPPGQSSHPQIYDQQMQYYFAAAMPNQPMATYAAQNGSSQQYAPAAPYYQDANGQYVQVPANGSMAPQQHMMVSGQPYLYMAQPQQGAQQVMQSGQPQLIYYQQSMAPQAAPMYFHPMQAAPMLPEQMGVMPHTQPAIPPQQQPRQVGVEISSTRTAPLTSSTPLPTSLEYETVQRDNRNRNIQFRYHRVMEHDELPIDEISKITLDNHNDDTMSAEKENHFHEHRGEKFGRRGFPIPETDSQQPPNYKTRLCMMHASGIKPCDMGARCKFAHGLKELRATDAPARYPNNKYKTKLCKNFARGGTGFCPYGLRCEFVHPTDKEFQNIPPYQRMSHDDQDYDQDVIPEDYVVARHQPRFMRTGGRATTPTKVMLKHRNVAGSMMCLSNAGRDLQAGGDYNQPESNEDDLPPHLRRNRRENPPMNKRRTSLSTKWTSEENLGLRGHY

[10] = target: Peroxisome proliferator-activated receptor gamma/Nuclear receptor coactivator 1 (Homo sapiens, UniProt P37231); type: functional;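 also: agonist potency as compounds enhance coactivator SRC-1 recruitment to PPARgamma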
[11] = target: Peroxisome proliferator-activated receptor gamma/Nuclear receptor coactivator 2 (Homo sapiens, UniProt P37231); type: functional;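 also: agonist potency for raising coactivator recruitment to the receptor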
[12] = target: Peroxisome proliferator-activated receptor gamma/Nuclear receptor coactivator 3 (Homo sapiens, UniProt P37231); type: functional;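 also: agonist potency for raising coactivator recruitment to the receptor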
[13] = target: Mothers against decapentaplegic homolog 3 (Homo sapiens, UniProt P84022); assay: SMAD3 transcription factor inhibitors, dose response (AID 715); type: functional
[14] = target: Diphosphomevalonate decarboxylase (Streptococcus pneumoniae serotype 2 (strain D39 / NCTC 7466), UniProt Q9FD53); assay: S. pneumoniae DPM-DC inhibition retest, confirmation, biochemical, cuvette format, coupled NADH fluorescence (AID 1028); type: functional
[15] = target: E3 ubiquitin-protein ligase Mdm2 (Homo sapiens, UniProt Q00987); assay: enhancers of MDM2-luciferase reporter signal, concentration-effect titration, project on inhibitors of MDM2 ubiquitin ligase, cellular assay, luminescent readout, 384-well plate format (AID 1394); type: functional;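 also: MDM2 E3 inhibitors raise luminescence so EC50 is for signal enhancement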
Chain of E3 ubiquitin-protein ligase Mdm2 (Q00987 whole entry): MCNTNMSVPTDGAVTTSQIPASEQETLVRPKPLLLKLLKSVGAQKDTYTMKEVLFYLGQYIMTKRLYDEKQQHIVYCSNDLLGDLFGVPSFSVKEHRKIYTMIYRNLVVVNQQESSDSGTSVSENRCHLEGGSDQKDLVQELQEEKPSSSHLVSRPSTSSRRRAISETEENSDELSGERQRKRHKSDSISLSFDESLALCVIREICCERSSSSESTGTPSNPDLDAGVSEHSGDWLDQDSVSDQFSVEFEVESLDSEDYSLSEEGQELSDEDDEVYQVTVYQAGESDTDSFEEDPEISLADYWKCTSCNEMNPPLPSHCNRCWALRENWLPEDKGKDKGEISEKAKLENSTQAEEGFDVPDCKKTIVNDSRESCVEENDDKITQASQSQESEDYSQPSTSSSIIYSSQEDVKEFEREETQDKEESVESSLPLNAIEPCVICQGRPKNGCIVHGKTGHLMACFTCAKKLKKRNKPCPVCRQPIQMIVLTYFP

Chain of Photoreceptor-specific nuclear receptor (Q9Y5X4 whole entry, the tested form may be a part): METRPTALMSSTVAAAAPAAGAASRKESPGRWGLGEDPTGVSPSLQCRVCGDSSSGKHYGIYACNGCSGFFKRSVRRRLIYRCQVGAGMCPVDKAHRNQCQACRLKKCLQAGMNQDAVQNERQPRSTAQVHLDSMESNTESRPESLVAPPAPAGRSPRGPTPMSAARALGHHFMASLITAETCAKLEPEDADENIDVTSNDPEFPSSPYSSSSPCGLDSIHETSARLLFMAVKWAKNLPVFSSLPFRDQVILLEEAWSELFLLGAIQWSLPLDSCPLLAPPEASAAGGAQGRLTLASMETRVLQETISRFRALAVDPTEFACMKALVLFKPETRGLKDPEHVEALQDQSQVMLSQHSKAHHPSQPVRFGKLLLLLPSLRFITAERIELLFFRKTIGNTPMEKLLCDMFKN
Chain of Peroxisome proliferator-activated receptor gamma/Nuclear receptor corepressor 2 (P37231 whole entry): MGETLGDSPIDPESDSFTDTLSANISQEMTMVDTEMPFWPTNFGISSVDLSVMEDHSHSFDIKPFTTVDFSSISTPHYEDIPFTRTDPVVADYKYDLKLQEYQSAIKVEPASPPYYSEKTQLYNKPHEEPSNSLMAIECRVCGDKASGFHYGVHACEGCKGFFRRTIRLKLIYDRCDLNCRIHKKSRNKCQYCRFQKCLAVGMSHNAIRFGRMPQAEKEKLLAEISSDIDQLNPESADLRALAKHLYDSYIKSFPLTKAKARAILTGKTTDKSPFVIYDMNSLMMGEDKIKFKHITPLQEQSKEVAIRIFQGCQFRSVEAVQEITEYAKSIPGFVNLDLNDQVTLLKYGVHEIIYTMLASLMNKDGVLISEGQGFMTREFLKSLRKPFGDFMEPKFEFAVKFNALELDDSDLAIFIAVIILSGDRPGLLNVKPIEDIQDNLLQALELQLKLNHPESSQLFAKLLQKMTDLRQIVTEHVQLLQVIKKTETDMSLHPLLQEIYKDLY
Chain of Peroxisome proliferator-activated receptor gamma/Nuclear receptor corepressor 2 (Q9Y618 whole entry): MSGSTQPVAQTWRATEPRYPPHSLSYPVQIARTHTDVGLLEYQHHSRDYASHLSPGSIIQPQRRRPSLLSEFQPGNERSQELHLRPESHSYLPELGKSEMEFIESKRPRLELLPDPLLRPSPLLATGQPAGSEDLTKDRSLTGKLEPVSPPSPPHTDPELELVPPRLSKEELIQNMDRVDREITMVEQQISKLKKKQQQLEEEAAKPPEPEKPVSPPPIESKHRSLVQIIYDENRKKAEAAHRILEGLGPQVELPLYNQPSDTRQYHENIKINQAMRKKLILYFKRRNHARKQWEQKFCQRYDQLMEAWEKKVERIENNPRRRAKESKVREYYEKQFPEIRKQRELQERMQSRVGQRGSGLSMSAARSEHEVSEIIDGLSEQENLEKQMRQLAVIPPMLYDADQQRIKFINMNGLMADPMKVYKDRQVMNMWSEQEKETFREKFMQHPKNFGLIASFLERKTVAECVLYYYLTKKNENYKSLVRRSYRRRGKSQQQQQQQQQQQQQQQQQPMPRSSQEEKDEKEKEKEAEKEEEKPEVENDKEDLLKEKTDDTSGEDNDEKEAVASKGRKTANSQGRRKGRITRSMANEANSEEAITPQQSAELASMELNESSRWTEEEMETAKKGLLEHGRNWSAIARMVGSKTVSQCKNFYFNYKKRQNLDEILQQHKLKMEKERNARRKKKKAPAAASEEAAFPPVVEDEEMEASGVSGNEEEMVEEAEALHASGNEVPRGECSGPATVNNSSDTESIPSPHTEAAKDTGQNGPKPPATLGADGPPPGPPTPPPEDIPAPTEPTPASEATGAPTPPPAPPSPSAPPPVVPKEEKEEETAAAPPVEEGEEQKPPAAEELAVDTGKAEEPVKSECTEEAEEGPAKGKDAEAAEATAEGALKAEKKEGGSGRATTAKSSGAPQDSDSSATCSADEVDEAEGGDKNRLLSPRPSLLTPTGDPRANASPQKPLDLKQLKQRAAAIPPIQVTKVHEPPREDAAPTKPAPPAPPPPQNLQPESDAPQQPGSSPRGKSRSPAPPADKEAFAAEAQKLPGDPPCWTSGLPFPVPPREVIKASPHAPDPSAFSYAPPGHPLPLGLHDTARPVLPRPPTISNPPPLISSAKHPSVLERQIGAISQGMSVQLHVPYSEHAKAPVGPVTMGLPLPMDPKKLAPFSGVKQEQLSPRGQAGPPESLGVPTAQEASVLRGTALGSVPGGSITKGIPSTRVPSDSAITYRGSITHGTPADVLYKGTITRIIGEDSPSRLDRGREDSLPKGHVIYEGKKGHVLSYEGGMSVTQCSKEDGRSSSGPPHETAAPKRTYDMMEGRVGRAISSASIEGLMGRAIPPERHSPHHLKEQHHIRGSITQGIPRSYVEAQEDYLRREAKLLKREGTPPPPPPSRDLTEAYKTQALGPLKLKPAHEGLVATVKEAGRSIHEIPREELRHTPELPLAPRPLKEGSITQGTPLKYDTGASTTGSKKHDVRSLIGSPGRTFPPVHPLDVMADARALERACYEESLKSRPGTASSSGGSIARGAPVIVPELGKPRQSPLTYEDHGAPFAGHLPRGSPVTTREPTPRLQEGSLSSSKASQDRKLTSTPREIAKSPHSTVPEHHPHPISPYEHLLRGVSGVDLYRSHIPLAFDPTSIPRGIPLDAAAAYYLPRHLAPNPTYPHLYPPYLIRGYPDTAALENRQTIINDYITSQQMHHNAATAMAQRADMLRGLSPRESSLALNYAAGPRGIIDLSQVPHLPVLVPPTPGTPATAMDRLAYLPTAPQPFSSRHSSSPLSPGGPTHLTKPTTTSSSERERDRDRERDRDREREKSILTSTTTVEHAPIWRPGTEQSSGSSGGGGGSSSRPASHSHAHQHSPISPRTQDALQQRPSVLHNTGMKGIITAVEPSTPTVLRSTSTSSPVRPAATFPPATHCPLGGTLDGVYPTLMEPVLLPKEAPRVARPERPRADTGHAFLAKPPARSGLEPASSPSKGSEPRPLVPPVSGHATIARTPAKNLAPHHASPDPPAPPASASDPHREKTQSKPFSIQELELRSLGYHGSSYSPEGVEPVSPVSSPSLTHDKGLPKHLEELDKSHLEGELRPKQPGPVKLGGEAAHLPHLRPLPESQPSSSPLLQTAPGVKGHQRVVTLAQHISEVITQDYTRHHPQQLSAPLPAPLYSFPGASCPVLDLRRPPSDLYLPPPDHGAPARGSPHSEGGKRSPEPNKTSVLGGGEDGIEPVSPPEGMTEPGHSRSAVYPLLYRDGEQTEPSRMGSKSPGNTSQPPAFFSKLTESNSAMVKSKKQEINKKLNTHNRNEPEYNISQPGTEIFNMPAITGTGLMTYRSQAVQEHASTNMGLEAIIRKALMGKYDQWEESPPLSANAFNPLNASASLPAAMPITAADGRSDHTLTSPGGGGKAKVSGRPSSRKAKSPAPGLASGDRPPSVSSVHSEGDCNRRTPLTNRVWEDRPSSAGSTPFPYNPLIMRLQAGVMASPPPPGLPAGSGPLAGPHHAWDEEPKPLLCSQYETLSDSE
Chain of Diphosphomevalonate decarboxylase (Q9FD53 whole entry): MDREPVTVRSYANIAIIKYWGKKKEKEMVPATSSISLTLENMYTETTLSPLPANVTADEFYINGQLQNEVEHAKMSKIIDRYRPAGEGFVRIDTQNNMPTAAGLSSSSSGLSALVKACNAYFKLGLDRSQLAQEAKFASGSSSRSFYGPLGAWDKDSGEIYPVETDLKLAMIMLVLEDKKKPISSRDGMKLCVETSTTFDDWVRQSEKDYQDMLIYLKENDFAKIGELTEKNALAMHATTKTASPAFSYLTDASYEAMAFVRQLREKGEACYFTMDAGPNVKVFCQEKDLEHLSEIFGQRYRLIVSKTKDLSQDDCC
Chain of Mothers against decapentaplegic homolog 3 (P84022 whole entry): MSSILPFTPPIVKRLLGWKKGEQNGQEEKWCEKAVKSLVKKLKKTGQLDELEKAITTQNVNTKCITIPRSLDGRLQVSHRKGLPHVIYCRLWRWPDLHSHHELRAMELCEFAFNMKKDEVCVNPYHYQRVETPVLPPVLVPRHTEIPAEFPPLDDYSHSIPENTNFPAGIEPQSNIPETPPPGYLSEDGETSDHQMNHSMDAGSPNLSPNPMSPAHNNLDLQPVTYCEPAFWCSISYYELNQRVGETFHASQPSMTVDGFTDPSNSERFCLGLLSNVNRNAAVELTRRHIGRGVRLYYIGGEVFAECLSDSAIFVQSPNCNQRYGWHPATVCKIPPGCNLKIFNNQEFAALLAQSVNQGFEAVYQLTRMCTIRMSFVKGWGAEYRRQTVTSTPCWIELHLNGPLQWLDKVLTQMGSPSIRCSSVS

Structure (SMILES): C/C(=C\C(=O)c1ccccc1)Nc1ccc(Cl)c(Br)c1
- IC50 [1]: > 100 µM (active)

Structure (SMILES): Clc1ccc(-n2nnc(-c3cnc4ccccc4c3)n2)cc1Cl
- IC50 [2]: > 100 µM (not active)
- IC50 [3]: > 100 µM (not active)

Structure (SMILES): CC(C(=O)N(C)C1CCS(=O)(=O)C1)N1C(=O)/C(=C/c2cccs2)SC1=S (stereo not given)
- CC50 [4]: 32.1 µM (active)

Structure (SMILES): N=C1NC(=O)/C(=C/c2ccc(-c3ccc(S(N)(=O)=O)cc3)o2)S1
- IC50 [5]: 14.2 µM (not active)
- EC50 [6]: 31.9 µM (active)
- AC50 [7]: 1.97 µM (active)
- IC50 [8]: > 39.8 µM (not active)
- EC50 [9]: 15 µM (active)

Structure (SMILES): CCCCOC(=O)CSc1nc(N)c(C#N)c(-c2ccc(OCC)cc2)c1C#N
- EC50 [10]: 11.2 µM (not active)
- EC50 [11]: 9.42 µM (active)
- EC50 [12]: > 79.4 µM (not active)
- IC50 [13]: 11 µM (active)

Structure (SMILES): CCCN(CCC)C(=O)c1ccc(-n2sc3ccccc3c2=O)cc1
- IC50 [14]: 7.64 µM (active)

Structure (SMILES): Cc1cc2cc(C)c(SCC(=O)NCc3ccco3)nc2cc1C
- EC50 [15]: 489 µM (not active)
